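A five-concentration, 48-hour dose response in 96-well plates underlies each endpoint, interpolated linearly between surrounding concentrations. Here, GI50 denotes the concentration required for 50% inhibition of growth.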 Activity calls are given as the source filed them. Cut-off read from the data, not from the text of the source: active = GI50 up to about 1.1 µM and inactive = higher.
What was measured:
Assay in all cases: NCI tumour cell line growth inhibition, 48 h
[1] = system: BT-549
[2] = system: CAKI-1
[3] = system: CCRF-CEM
[4] = system: COLO 205
[5] = system: EKVX
[6] = system: HCC 2998
[7] = system: LOX IMVI
[8] = system: MDA-MB-231
[9] = system: MDA-MB-435
[10] = system: MOLT-4
[11] = system: NCI-H23
[12] = system: OVCAR-3
[13] = system: OVCAR-4
[14] = system: PC-3
[15] = system: RPMI-8226
[16] = system: SF-295
[17] = system: T47D
[18] = system: TK-10
[19] = system: UO-31
[20] = system: HL-60

Row | SMILES | GI50 [1] | GI50 [2] | GI50 [3] | GI50 [4] | GI50 [5] | GI50 [6] | GI50 [7] | GI50 [8] | GI50 [9] | GI50 [10] | GI50 [11] | GI50 [12] | GI50 [13] | GI50 [14] | GI50 [15] | GI50 [16] | GI50 [17] | GI50 [18] | GI50 [19] | GI50 [20]
1 | CCOC(=O)/C=C(\C(=O)OCC)n1cc(C)c(=O)n(Cc2cn(COCCOC(C)=O)nn2)c1=O | 10.6 µM (inactive) | 2.84 µM (inactive) | 1.85 µM (inactive) | 2.86 µM (inactive) | 10.5 µM (inactive) | 22.9 µM (inactive) | 15.9 µM (inactive) | 20.1 µM (inactive) | 6.55 µM (inactive) | 3.79 µM (inactive) | 14.7 µM (inactive) | 13.2 µM (inactive) | 23.3 µM (inactive) | 20 µM (inactive) | 5.09 µM (inactive) | 19.5 µM (inactive) | 21.3 µM (inactive) | 4.97 µM (inactive) | 14 µM (inactive) | 
2 | CC1CNC(c2ccc3c(c2)Cc2cc(C4=NC(C)CN4)ccc2-3)=N1 (stereo not given) | > 100 µM (inactive) | > 100 µM (inactive) | > 100 µM (inactive) | 54 µM (inactive) | > 100 µM (inactive) | 18.2 µM (inactive) | 47.2 µM (inactive) | 33.6 µM (inactive) | 25.8 µM (inactive) | 37.8 µM (inactive) | 37.2 µM (inactive) | 20.8 µM (inactive) | 19.1 µM (inactive) | 43.8 µM (inactive) | 36.6 µM (inactive) | 71.9 µM (inactive) | 35.6 µM (inactive) | > 100 µM (inactive) | > 100 µM (inactive) | 
3 | CC1=C(C)C(=O)C(C2=CC(=O)c3ccccc3C2=O)=C(C2=CC(=O)c3ccccc3C2=O)C1=O | 18.7 µM (inactive) | 2.95 µM (inactive) |  | 1.99 µM (inactive) | 19.3 µM (inactive) | 6.95 µM (inactive) | 1.39 µM (inactive) | 4.52 µM (inactive) | 0.352 µM (active) |  | 8.13 µM (inactive) |  | 5.04 µM (inactive) | 5.74 µM (inactive) |  | 12.3 µM (inactive) | 6.95 µM (inactive) | 3.38 µM (inactive) | 2.84 µM (inactive) | 0.234 µM (active)
4 | OCCCCn1cc(Cn2ncc3c(NCc4ccccc4)ncnc32)nn1 | > 100 µM (inactive) | > 100 µM (inactive) | > 100 µM (inactive) | > 100 µM (inactive) | > 100 µM (inactive) | > 100 µM (inactive) | > 100 µM (inactive) | > 100 µM (inactive) | 33.7 µM (inactive) | 53.1 µM (inactive) | > 100 µM (inactive) | > 100 µM (inactive) | > 100 µM (inactive) | > 100 µM (inactive) | > 100 µM (inactive) | > 100 µM (inactive) | 66.1 µM (inactive) | > 100 µM (inactive) | > 100 µM (inactive) | 
5 | CCC(C)C(NC(=O)C(CCCC[N+](=N)N)NC(=O)C(CCCC[N+](=N)N)NC(=O)c1ccc(OC)cc1)C(=O)NC(CCCC[N+](=N)N)C(=O)N1CCCC1C(=O)NC(CCCCN)C(=O)NC(CC(C)C)C(N)=O (stereo not given) | > 100 µM (inactive) | > 100 µM (inactive) | > 100 µM (inactive) | > 100 µM (inactive) | > 100 µM (inactive) | > 100 µM (inactive) | > 100 µM (inactive) | > 100 µM (inactive) | > 100 µM (inactive) | > 100 µM (inactive) | > 100 µM (inactive) | > 100 µM (inactive) | > 100 µM (inactive) | > 100 µM (inactive) | > 100 µM (inactive) | > 100 µM (inactive) | > 100 µM (inactive) | > 100 µM (inactive) | > 100 µM (inactive) | 
6 | O=c1[nH]nc(Cc2ccccc2)n1CCO | > 100 µM (inactive) | > 100 µM (inactive) |  | > 100 µM (inactive) | > 100 µM (inactive) | > 100 µM (inactive) | > 100 µM (inactive) | > 100 µM (inactive) | > 100 µM (inactive) | > 100 µM (inactive) | > 100 µM (inactive) | > 100 µM (inactive) | > 100 µM (inactive) | > 100 µM (inactive) | > 100 µM (inactive) | > 100 µM (inactive) | > 100 µM (inactive) | > 100 µM (inactive) | > 100 µM (inactive) | 
7 | COc1ccccc1-n1nnc2c(N)nc(N)nc21 | > 100 µM (inactive) | > 100 µM (inactive) | > 100 µM (inactive) | > 100 µM (inactive) | > 100 µM (inactive) |  | > 100 µM (inactive) | > 100 µM (inactive) | > 100 µM (inactive) | > 100 µM (inactive) | > 100 µM (inactive) | > 100 µM (inactive) | > 100 µM (inactive) | > 100 µM (inactive) | > 100 µM (inactive) | > 100 µM (inactive) | > 100 µM (inactive) | > 100 µM (inactive) | > 100 µM (inactive) | > 100 µM (inactive)
8 | N#CCCSC(=S)C1CCCC1=N (stereo not given) | > 100 µM (inactive) | > 100 µM (inactive) |  | > 100 µM (inactive) | > 100 µM (inactive) |  |  | > 100 µM (inactive) | > 100 µM (inactive) | > 100 µM (inactive) | > 100 µM (inactive) | > 100 µM (inactive) | > 100 µM (inactive) | > 100 µM (inactive) | > 100 µM (inactive) | > 100 µM (inactive) | 36 µM (inactive) | > 100 µM (inactive) | > 100 µM (inactive) | > 100 µM (inactive)
9 | C/C(=C/CC[C@]1(CO)CC[C@]2(C)[C@H](CC[C@@H]3[C@@]4(C)CC[C@H](OC5OC(CO)C(O)C(O)C5OC5OC(CO)C(O)C(O)C5O)C(C)(C)[C@@H]4CC[C@]32C)[C@H]1O)CO (stereo not given in full) | > 100 µM (inactive) | > 100 µM (inactive) | > 100 µM (inactive) | > 100 µM (inactive) | > 100 µM (inactive) |  | > 100 µM (inactive) | > 100 µM (inactive) | > 100 µM (inactive) | > 100 µM (inactive) | > 100 µM (inactive) | > 100 µM (inactive) | > 100 µM (inactive) | > 100 µM (inactive) | > 100 µM (inactive) | > 100 µM (inactive) | > 100 µM (inactive) | > 100 µM (inactive) | > 100 µM (inactive) | > 100 µM (inactive)
10 | CN(CCCn1ccnc1[N+](=O)[O-])CCCn1ccnc1[N+](=O)[O-] | > 100 µM (inactive) | > 100 µM (inactive) | 8.41 µM (inactive) | > 100 µM (inactive) | > 100 µM (inactive) |  | > 100 µM (inactive) | > 100 µM (inactive) | > 100 µM (inactive) | 0.0861 µM (active) | > 100 µM (inactive) | > 100 µM (inactive) | > 100 µM (inactive) | > 100 µM (inactive) | > 100 µM (inactive) | > 100 µM (inactive) | > 100 µM (inactive) | > 100 µM (inactive) | > 100 µM (inactive) | > 100 µM (inactive)
11 | CCN(CC)c1ccc2nc3ccc(/N=N/c4c(O)ccc5ccccc45)cc3[n+](-c3ccccc3)c2c1 | > 100 µM (inactive) | > 100 µM (inactive) | > 100 µM (inactive) | > 100 µM (inactive) | > 100 µM (inactive) |  |  | > 100 µM (inactive) | > 100 µM (inactive) | > 100 µM (inactive) | > 100 µM (inactive) | > 100 µM (inactive) | > 100 µM (inactive) | > 100 µM (inactive) | > 100 µM (inactive) | > 100 µM (inactive) | > 100 µM (inactive) | > 100 µM (inactive) | > 100 µM (inactive) | 23.9 µM (inactive)
12 | S=c1c2cc(I)ccc2nc(S)n1Cc1ccccc1 | 4.42 µM (inactive) | 3.78 µM (inactive) | 1.84 µM (inactive) | 10.7 µM (inactive) | 3.71 µM (inactive) |  | 3.4 µM (inactive) | 6.37 µM (inactive) | 4.1 µM (inactive) | 3.18 µM (inactive) | 2.91 µM (inactive) | 2.9 µM (inactive) | 3.62 µM (inactive) | 3.32 µM (inactive) | 2.95 µM (inactive) | 2.99 µM (inactive) | 1.5 µM (inactive) | 4.55 µM (inactive) | 3.37 µM (inactive) | 2.33 µM (inactive)
13 | C[N+]1(CCN[N+]2(C)CCCCC2)CCc2ccccc2C1 (stereo not given) | > 100 µM (inactive) | > 100 µM (inactive) | > 100 µM (inactive) | > 100 µM (inactive) | > 100 µM (inactive) | > 100 µM (inactive) | > 100 µM (inactive) | > 100 µM (inactive) | > 100 µM (inactive) | > 100 µM (inactive) | > 100 µM (inactive) | > 100 µM (inactive) | > 100 µM (inactive) | > 100 µM (inactive) | > 100 µM (inactive) | > 100 µM (inactive) | > 100 µM (inactive) | > 100 µM (inactive) | > 100 µM (inactive) | 
14 | COc1cc([C@@H]2c3cc4c(cc3C[C@H]3COC(=O)[C@@H]32)OCO4)cc(OC)c1OC [DESOXYPODOPHYLLOTOXIN] | < 0.01 µM (active) | 0.00711 µM (active) | 0.00865 µM (active) |  | 0.005 µM (active) | 0.00791 µM (active) |  | < 0.01 µM (active) | 0.00261 µM (active) | 0.00893 µM (active) | 0.00714 µM (active) |  |  | 0.00353 µM (active) |  | 0.00632 µM (active) | 0.003 µM (active) | < 0.01 µM (active) | 0.0986 µM (active) | 0.00713 µM (active)

Source: ChEMBL document CHEMBL1201862, “PubChem BioAssay data set” (2004)
